Data set [1] addresses T1, CytC (Homo sapiens, UniProt P99999).
T1 construct: purchased RayBiotech Life, Inc (GA, USA)
In words: CytC aptasensor calibration curve by square wave voltammetry. The data set is classed as binding. The source says: (§1) Characterization of the electrochemical aptamer-based sensor. An electrochemical sensor with a modified aptamer that recognizes CytC was developed, enabling real-time monitoring of CytC increases in the supernatant due to cell death in cuboids during drug screening. The aptamer sequences were modified with a redox-active molecule, methylene blue (MB), at the distal end of the aptamer. As shown at FIG. 2A, the binding of the CytC target induces a rapid and reversible conformational change in the aptamer, increasing the electron transfer (eT) rate between the MB reporter and the WE surface. This change in eT results in a measurable variation in redox current, easily detectable using square wave voltammetry (SWV). Changes in peak current height were monitored, which correlates with the proximity of the MB redox tag to the electrode. The performance of the aptasensors in response to varying concentrations of CytC (ranging from 1 to 30,000 ng/mL) is presented at FIG. 2B. At a recording frequency of 50 Hz, the peak current height of the sensors decreases as the CytC concentration increases.
Electrochemical signal measurement. All the electrochemical measurements were performed using a Digi-Ivy potentiostat (DY-2219, Digi-Ivy, Austin, TX, USA). For the SWV measurements, the sensors were integrated from 0.0 to −0.5 V (versus Ag/AgCl) with 40-mV amplitude and a voltage increment of 1 mV suitable frequency setting (ranging from 10 Hz to 1,000 Hz). A conventional three-electrode cell was used in electrodeposition, Ag/AgCl with 3M KCl as reference electrode, and platinum wire (0.05 mm diameter, Alfa Aesar, MA, USA) as counter electrode.
Quantitative analysis and characterization of the Cyt C aptamer sensor. The CytC sensors were characterized in cultured medium DMEM-F12-10% FBS with spiked human CytC recombinant (reconstituted in PBS). The SWV measurement for aptasensors was scanned from −0.5 V to 0 V with 40-mV amplitude and a step potential of 1 mV. The frequency is 50 Hz and 1,000 Hz.

For data set [2], the target named is T1, CytC. The data set can be described thus: Binding kinetics of the CytC aptasensor (temporal response, flow injection analysis). The source says: Binding kinetics of the CytC aptasensor. The binding kinetics of aptamer-protein complexes were further evaluated. […] Next, the monomolecular dissociation rate constant (koff) was computed. The aptasensor platform was adapted for flow injection analysis under constant flow. The sensor platform was modified to incorporate an inlet and outlet loop injection system. With this setup, the different phases of aptamer-target interaction were able to be measured, including association, dissociation, and equilibrium. […] Initially, the aptamer remained unbound in the absence of the target, producing baseline levels of current. The introduction of the target initiated the association phase, which led to the occupation of aptamer binding sites. This phase continued until a steady-state or equilibrium point was attained. Subsequently, the semi-automated target removal initiated the dissociation phase of the aptamer-target complex. The continuous flow of the medium enabled the aptasensor to recover eventually, gradually returning to the baseline levels within approximately 12 hrs.
Modify sensor platform to become injection analysis platform for characterization of binding kinetics. The existing platform was modified by introducing an additional PMMA layer to establish channels and the well layer altered to create a sealed chamber for flow injection. The PMMA layer (0.3 mm thick) was lined with 3M300LSE adhesive before being precisely cut using a CO2 laser. The culture medium was injected through tubing (Tygona, Cole-Parmer, IL, USA) connected to the injector loop at a 2.5 mL/min flow rate using a Fusion 200 syringe pump (Chemyx, Inc, TX, USA). Following a 5-minute equilibration period during which the sensors were exposed to continuous medium flow, CytC was introduced into the flow as the target compound.

Data set [3] addresses T1, CytC. In words: Selectivity of the CytC aptasensor against interferents and drugs. It counts as binding. The procedure:
Selectivity of the CytC aptasensor. Selectivity is a factor for the practical application of these sensors in tumor-on-a-chip models for drug screening. To assess the selectivity of the sensors, experiments were conducted in which the sensor's responses to CytC (100 ng/mL) vs. responses in the presence of other potentially interfering molecules (also at 100 ng/mL) were measured. Measurements were performed in a growth medium at 50 Hz.
Ex-vivo monitoring of CytC from microdissected tumor tissues after drug treatment in culture using the aptasensor platform. The sensor platform's ability to quantify CytC secretion from cuboids was evaluated at different time points during an extended culture period (48 hrs). Cuboids from human U87 glioma cell-derived tumors grown in athymic nude mice were prepared. […] Next, the sensor platform's ability to measure CytC secretion from cuboids in response to exposure to cytotoxic drugs was evaluated. Initially, the baseline signal was measured with the encapsulated cuboids on the WE before exposing U87 cuboids to different concentrations of cisplatin (a cytotoxic chemotherapy drug, FIG. 5C), sepantronium bromide, (YM-155, a survivin inhibitor and potential anti-cancer drug, FIG. 5D), and mocetinostat (MOC, a histone deacetylases inhibitor cancer drug, FIG. 5E) for 48 hrs. […]

The subject of data set [4] is U87 glioma xenograft cuboids. In words: On-device aptasensor monitoring of CytC secretion from drug-treated cuboids. The note with it: for CytC level vs control: 12 to 48 hrs. It counts as cell-based. The protocol:
Ex-vivo monitoring of CytC from microdissected tumor tissues after drug treatment in culture using the aptasensor platform. The sensor platform's ability to quantify CytC secretion from cuboids was evaluated at different time points during an extended culture period (48 hrs). Cuboids from human U87 glioma cell-derived tumors grown in athymic nude mice were prepared. After overnight culture in a 96-well plate to allow recovery from tissue damage due to the cutting procedure, the cuboids were transferred onto the sensor platform for measurement. To prevent random adhesion of the cuboids to the sensor surface and improve the precise localization of CytC secretion detection, the cuboids were encapsulated in a hydrogel. They were mixed with hydrogel before transferring onto the sensors and immobilizing them to a restricted area just above the working electrode (FIGS. 5A-5B). […] Encapsulation of cells in hydrogels in close proximity to the WE also generates a more localized and distinguishable electrochemical response. Hydrogels can be used as a protective layer to ensure the long-term stability of aptasensors. A polysaccharide hydrogel (Cellink, Bioink, Boston, USA) that contains nanofibrillar cellulose and sodium alginate was used. […] It was also observed that the performance of the sensors remained unhindered regardless of the hydrogel concentration, apart from an extension of the reaction time to approximately 30 min. […] Next, the sensor platform's ability to measure CytC secretion from cuboids in response to exposure to cytotoxic drugs was evaluated. Initially, the baseline signal was measured with the encapsulated cuboids on the WE before exposing U87 cuboids to different concentrations of cisplatin (a cytotoxic chemotherapy drug, FIG. 5C), sepantronium bromide, (YM-155, a survivin inhibitor and potential anti-cancer drug, FIG. 5D), and mocetinostat (MOC, a histone deacetylases inhibitor cancer drug, FIG. 5E) for 48 hrs. […] These observations were consistent with fluorescence-based findings and agreed with the sensor-based responses. […]

Data set [5] has as its system U87 glioma xenograft cuboids. The data set can be described thus: Terminal SYTOX green dead stain fluorescence of cuboids. The note with it: 48 hrs. The data set is classed as cell-based.
For data set [6], the target named is Cytochrome c (CytC) (Homo sapiens, UniProt P99999 P99999:2-105). In words: apparent KD, electrochemical aptamer sensor on Au, square wave voltammetry 50 Hz, Langmuir-Hill fit; text also prints 515±130 μM (6.19 ng/mL corresponds to abou). The note with it: tags: RayBiotech Life recombinant human cytochrome c; label: 3' methylene blue.
Source text: as §1

Where “and” joins values, the source holds several entries; their conditions need not be identical. Equal values may be shown once.

T1 sequence (P99999 whole entry): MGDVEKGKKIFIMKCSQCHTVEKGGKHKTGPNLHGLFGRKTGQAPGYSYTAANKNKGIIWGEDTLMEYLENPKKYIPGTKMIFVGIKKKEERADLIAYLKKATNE
Sequence of Cytochrome c (CytC) (P99999 2-105, one chain of several): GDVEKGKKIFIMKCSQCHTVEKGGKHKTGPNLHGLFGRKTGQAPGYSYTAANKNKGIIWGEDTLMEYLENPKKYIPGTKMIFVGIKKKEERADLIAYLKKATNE

Take “5′-/ThioMC6-D/CC GTGTCTGGGGCCGACCGGCGCATTGGGTACGTTGTTGC/AmMO/-3′ (DNA CCGTGTCTGGGGCCGACCGGCGCATTGGGTACGTTGTTGC; chemistry not fully specified) [CytC aptasensor, DNA aptamer recognizing cytochrome C, modified with methylene blue redox reporter, immobilized on gold working electrode]”: in data set [1] (50 Hz), the detectable relevant concentrations entry is listed as “up to 3.32 μM” and the dynamic range result is “up to 39,580 ng/mL”. Moreover, in data set [1] (calibration curve at 50 Hz, nonlinear regression fit to Langmuir-Hill isotherm), the “apparent dissociation constant, KD” value was 6.19 ± 1.57 ng/mL and ~6 ng/mL. Further, in data set [2], the “time to return to baseline (dissociation)” value amounted to 12 h. Further, in data set [2] (after addition of 1,000 ng/ml CytC, SWV 50 Hz), the “response time to target” value is not above 100 s. In addition, the “time to return to baseline levels (dissociation)” value in data set [2] (continuous flow of medium after target removal) is reported as “approximately 12 hrs”. Besides, in data set [3] (CytC 100 ng/mL vs FGF, EGF, IL-2, BSA at 100 ng/mL, growth medium, 50 Hz), the “signal gain for CytC vs interfering molecules” value is “higher signal gain”. The “signal gain for CytC vs drugs used for treatment” value in data set [3] (CytC 100 and 2000 ng/mL vs DMSO, MOC, FOLFOX, Cisplatin, Staurosporine, YM-155, culture medium, 50 Hz, 1,000 Hz, KDM) is recorded as “higher signal gain”.
With `Nc1ccccc1NC(=O)c1ccc(CNc2nccc(-c3cccnc3)n2)cc1` [MOC, mocetinostat], in data set [4] (10 μM MOC, 48 hrs, not statistically significant), the “CytC production rate vs DMSO control” value is “higher average CytC production rate than the DMSO control”. Further, the “SG dead stain fluorescence vs DMSO control” value in data set [5] (10 μM MOC) is recorded as “slightly elevated SG dead stain fluorescence”.
Turning to `N.N.[Cl][Pt][Cl]` [cisplatin], the figures for the “CytC level vs control” value in data set [4] (30 μM cisplatin) and in data set [4] (100 μM cisplatin) were “higher CytC level compared to the control” and “highest levels of CytC”, respectively. Moreover, the “SG dead stain fluorescence vs control” value in data set [5] (30 μM cisplatin) and in data set [5] (100 μM cisplatin) was “higher SG dead stain fluorescence” throughout.

B1: CytC aptamer (SEQ ID NO:1) (ssDNA)
DNA: CCGTGTCTGGGGCCGACCGGCGCATTGGGTACGTTGTTGC
modifications: 5' ThioMC6-D (disulfide C6 thiol, attached to gold electrode); 3' amino modifier conjugated to methylene blue
For the molecule B1, the binding result in data set [6] is “binds”.

For the origin of these results see patent US20240369511A1, “INTEGRATED ELECTROCHEMICAL APTASENSORS FOR MEASURING CELL DEATH AND CYTOKINE ACTIVITY FROM INTACT TISSUE SAMPLES” (University of Washington, priority 2023, published 2024).
